From paper PMC11251039, “Harnessing cholesterol uptake of malaria parasites for therapeutic applications” (EMBO Molecular Medicine, 2024)
“And” between values parts separate entries of the source, which are not always exact repeats. Identical values can stand only once.

Legend:
[1] = test system: P. falciparum stage V gametocytes; test: P. falciparum gametocyte viability assay (MitoTracker, flow cytometry), stage V; type: cell-based, Plasmodium falciparum; conditions: 48 h; for Gametocyte stage V viability, percentage of control: listed as BC9B
Procedure: (§1) Gametocyte assays commenced seven days (stage III–IV) or ten days (stage V) post-invasion. […]
(§2) Plasmodium falciparum Gametocyte Viability Assays:
(§3) Asexual P. falciparum parasites were induced to form gametocytes as described (21).
(§4) Synchronized trophozoite-stage parasites at 2% parasitaemia were incubated overnight and […]
(§5) haematocrit maintained at 4%. On the subsequent day (designated as day 0) of gametocytogenesis, the culture containing early ring-stage parasites was first purified by sorbitol synchronisation to remove asynchronous trophozoites, and passed through a magnetic field in a sterile MACS® column in a SuperMACSTM II magnet to remove remaining late-stage parasites or later-stage gametocytes (negative selection). The culture medium was supplemented with 50 mM N-acetyl-D-glucosamine to inhibit asexual parasite proliferation, and changed daily. Sorbitol treatment was performed on Day 1, 5, and 6 to further remove asexual parasites. Gametocytes were magnetically enriched (positive selection) in a sterile column with a SuperMACSTM II magnet and eluted in culture media with 50 mM N-acetyl-D-glucosamine. These gametocytes were incubated overnight at 37 °C under microaerophilic conditions, and purity was assessed by examination under a light microscope (400× […]
(§6) Gametocyte viability was assessed as described by Ridgway et al. (21) with modifications.
(§7) Compounds or solvent controls (DMSO) were serially diluted across 96-well plates in culture media supplemented with 50 mM N-acetyl-D-glucosamine. Culture media without compound was used as a negative control. […]
(§8) control to determine background gametocyte fluorescence. Stage III-IV gametocytes (Day 7) or stage V (day 10) gametocytes were concentrated and added to the plate with 200 µL per well. The plate was incubated for 48 hours at 37 °C under humid microaerophilic conditions.
(§9) Parasites were then stained with 500 nM MitoTrackerTM Deep Red FM and 5 μg/ml Hoechst […]
(§10) cytometer as described above. […]
(§11) excluded. Live (positive) and dead (negative) gametocytes were differentiated by […]
(§12) percentage of each was calculated. […]

[2] = test system: human hepatoma cells (Huh7); test: Human hepatoma viability assay (CellTiter-Blue); type: cell-based; conditions: for Huh7 viability, dose-response data points (Figure 3F): replicate data points, listed as BC9B
Procedure: Huh7 hepatoma viability assays were conducted in the same manner as the P. berghei assays, with metabolic capacity (indicating viability) measured with a fluorescence microplate reader after incubation with CellTiter-Blue® (Promega) for 3 h.
Appendix Fraser/Curtis et al. […]
Human Hepatoma Viability Assays:
The Huh7 hepatoma cell line (ATCC) was maintained under routine culture conditions in Dulbecco's Modified Eagle Medium (DMEM) containing 3.7 g/L NaHCO3 supplemented with 10% foetal bovine serum (FBS), 100 units/mL penicillin, and 100 μg/mL streptomycin at 37 °C in a humidified 5% CO2 incubator.
Viability assays were performed in parallel to the P. berghei growth inhibition. 10,000 Huh7 cells were seeded in 96-well and dark-sided microplates (Greiner Bio One) and cultured at 37°C, 5% CO2 and 80% humidity. The next day, the media was replaced with compounds or solvent controls (DMSO) serially diluted in culture media. Media was partially replaced with new drug dilutions over the following two days. After 48 hours, CellTiter-Blue® (Promega) was added according to the manufacturer’s instructions and incubated for 3 hours. Fluorescence intensity was measured with 530/25 ex and 590/20 em in a Synergy HTX plate reader (Agilent).

[3] = test system: P. falciparum stage III–IV gametocytes; test: P. falciparum gametocyte viability assay (MitoTracker, flow cytometry), stage III-IV; type: cell-based, Plasmodium falciparum; conditions: 48 h, replicate values, source data Fig. 2C, listed as BC9B
Procedure: as §1, §2, §3, §4, §5, §6, §7, §8, §9, §10, §11, §12

COc1cc(NC(C)CCCNC(=O)CCC(=O)OC(C)C)c2ncccc2c1 (stereo not drawn) [PQ-link]
Gametocyte stage V viability, percentage of control ([1]; 50.000000000 uM, replicate values, source data Fig. 2D): 66.98% and 63.41% and 52.55% and 74.37% and 69.92% and 70.17%
Gametocyte stage V viability, percentage of control ([1]; 100.000000000 uM, replicate values, source data Fig. 2D): 11.39% (2×) and 9.662% and 17.36% and 16.33% and 21.17% and 48.62% and 50.63% and 48.77%
Gametocyte stage V viability, percentage of control ([1]; 200.000000000 uM, replicate values, source data Fig. 2D): -1.011% and -1.165% and -0.9342% and -0.2117% and -0.2822% and -0.3175% and 0.4794% and 0.8647% and 0.8741%
viability at 6.25 µM ([1]; Plasmodium falciparum, 6.250000000 uM, replicate values, source data Fig. 2D, read-out: Gametocyte stage V viability, percentage of control): 103%
viability at 12.5 µM ([1]; Plasmodium falciparum, 12.500000000 uM, replicate values, source data Fig. 2D, read-out: Gametocyte stage V viability, percentage of control): 104%
viability at 25 µM ([1]; Plasmodium falciparum, 25.000000000 uM, replicate values, source data Fig. 2D, read-out: Gametocyte stage V viability, percentage of control): 87.6%
IC50 ([1]; Plasmodium falciparum, read-out: IC50, P. falciparum gametocyte stage V inhibition): 70.5 µM
Huh7 viability, dose-response data points (Figure 3F) ([2]; 0.015241580 uM, 0.0152416 µM): 107.3 and 97.91 and 99.21 and 88.27 and 85.99 and 85.17 and 77.48 and 99.67 and 102.9
Huh7 viability, dose-response data points (Figure 3F) ([2]; 0.045724740 uM, 0.0457247 µM): 101.4 (2×) and 102.9 and 96.11 and 84.48 and 82.6 and 86.76 and 77.19 and 99.77
Huh7 viability, dose-response data points (Figure 3F) ([2]; 0.137174210 uM, 0.137174 µM): 100.3 and 97.53 and 89.5 and 87.16 and 86.15 and 91.05 and 98.93 and 94.82
Huh7 viability, dose-response data points (Figure 3F) ([2]; 0.411522630 uM, 0.411523 µM): 98.17 and 99.16 and 96.93 and 83.82 and 84.25 and 87.07 and 70.92 and 100.4 and 90.7
Huh7 viability, dose-response data points (Figure 3F) ([2]; 1.234567900 uM, 1.23457 µM): 106.4 and 97.98 and 99.19 and 82.25 and 86.23 and 90.4 and 72.24 and 83.96 and 96.58
Huh7 viability, dose-response data points (Figure 3F) ([2]; 3.703703700 uM, 3.7037 µM): 96.27 and 98.44 and 90.47 and 77.12 and 78.19 and 82.37 and 76.62 and 90.94 and 92.11
Huh7 viability, dose-response data points (Figure 3F) ([2]; 11.111111100 uM, 11.1111 µM): 98.42 and 95.99 and 90.47 and 70.14 and 68.57 and 67.94 and 56.41 and 72.23 and 71.76
Huh7 viability, dose-response data points (Figure 3F) ([2]; 33.333333300 uM, 33.3333 µM): 79.4 and 75.47 and 83.67 and 39.88 and 39.61 and 43.08 and 30.62 and 36.38 and 34.72
Huh7 viability, dose-response data points (Figure 3F) ([2]; 100.000000000 uM): 33.18 and 40.69 and 39.77 and 19.19 and 19.87 and 20.01 and 9.61 and 11.04 and 10.16
IC50 ([2]; Homo sapiens, Huh-7, 48 h, Huh7, read-out: IC50, human hepatoma inhibition (viability)): 32.8 µM
Gametocyte stage III-IV viability, percentage of control ([3]; 3.125000000 uM, 3.125 µM): 95.52% (2×) and 103.7% and 98.94% and 103.3% and 102% and 98.19% and 98.79% and 101.3% and 100.5% and 109.4%
Gametocyte stage III-IV viability, percentage of control ([3]; 6.250000000 uM, 6.25 µM): 103.3% and 99.89% and 101.1% and 100.9% and 104.1% and 103.4% and 100.6% and 98.59% and 102.7% and 100.3% and 94.88%
Gametocyte stage III-IV viability, percentage of control ([3]; 12.500000000 uM, 12.5 µM): 96% and 94.38% and 101.5% and 100.5% and 100.7% and 100.4% and 98.39% (2×) and 102.7% and 98.65% and 95.96%
Gametocyte stage III-IV viability, percentage of control ([3]; 25.000000000 uM): 93.41% and 97.62% and 99.34% and 95.75% and 97.14% and 99.2% and 97.59% and 96.58% and 96.77% and 92.46% and 91.11%
Gametocyte stage III-IV viability, percentage of control ([3]; 50.000000000 uM): 83.69% and 82.72% and 92.56% and 88.38% and 90.37% and 90.15% and 87.94% (2×) and 83.57% and 86.8% and 83.3%
Gametocyte stage III-IV viability, percentage of control ([3]; 100.000000000 uM): 63.1% and 60.41% and 65.29% and 78% and 74.98% and 78.2% and 65.68% and 65.48% and 64.86% and 59.49% and 56.77% and 63.58%
Gametocyte stage III-IV viability, percentage of control ([3]; 200.000000000 uM): 0.3329% and -3.262% and -3.462% and -33.89% and -33.85% and -34.28% and -34.3% and -33.84% and -35.23%
